In article PMC2569088, “Hydroxylated Metabolites of the Polybrominated Diphenyl Ether Mixture DE-71 Are Weak Estrogen Receptor-α Ligands” (Environmental Health Perspectives, 2008):
pEC50, pIC50: −log10 of the molar value. Like-named read-outs stand apart in the source and are kept apart here. One block for each compound: values may come before it.

How the values were obtained:
[1] = biological target: T1, recombinant ER-α (Homo sapiens, UniProt P03372); assay: Recombinant ER-α binding assay (3H-E2 displacement)
T1 construct: purchased Panvera/Invitrogen, Madison, WI
T1 sequence (P03372 1-595): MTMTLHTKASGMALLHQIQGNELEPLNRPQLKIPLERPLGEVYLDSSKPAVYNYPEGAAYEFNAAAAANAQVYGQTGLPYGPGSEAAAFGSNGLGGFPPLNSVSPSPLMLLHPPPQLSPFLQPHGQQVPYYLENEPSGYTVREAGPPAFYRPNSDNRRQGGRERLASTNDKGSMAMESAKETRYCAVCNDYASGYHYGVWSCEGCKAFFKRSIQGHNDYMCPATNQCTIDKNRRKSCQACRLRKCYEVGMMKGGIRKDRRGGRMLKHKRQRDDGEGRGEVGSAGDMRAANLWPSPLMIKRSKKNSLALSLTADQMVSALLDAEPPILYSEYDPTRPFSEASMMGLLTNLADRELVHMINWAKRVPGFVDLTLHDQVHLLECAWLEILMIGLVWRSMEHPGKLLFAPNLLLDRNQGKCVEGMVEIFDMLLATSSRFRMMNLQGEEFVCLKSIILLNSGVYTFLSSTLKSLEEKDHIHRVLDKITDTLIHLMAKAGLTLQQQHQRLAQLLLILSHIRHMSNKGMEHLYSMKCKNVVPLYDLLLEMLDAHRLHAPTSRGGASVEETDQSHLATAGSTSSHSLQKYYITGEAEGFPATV

[2] = system: ERE-luciferase (ER-α-positive BG1Luc4E2 cells); assay: ERE-luciferase reporter assay in stably transfected BG1Luc4E2 ovarian cancer cells; format: cell-based, human; conditions: for EC50 / pEC50: determined using the chemical's own maximum effect set at 100%, luciferase 18 hr after addition; for pEC50: read-out: EC50; for Fold-induction at EC50: normalized to vehicle control (DMSO = 1)
Description: MDA-MB-231 breast cancer cells ([Cailleau et al. 1978]) obtained from ATCC (American Type Culture Collection; Manassas, VA) and BG1Luc4E2 ovarian cancer cells, a gift from M. Denison (University of California, Davis, CA), were used in estrogen bioassays. BG1LucE2 cells are BG-1 ovarian cancer cells ([Geisinger et al. 1989]) stably transfected with an estrogen-responsive plasmid ([Rogers and Denison 2000]). Most cell culture media and supplements were purchased from Gibco/Invitrogen (Carlsbad, CA), except bovine growth serum (BGS; Hyclone, Logan, UT) and geneticin (G418; Sigma). Most charcoal-stripping reagents and endotoxin-free water were purchased from Sigma-Aldrich (St. Louis, MO) except Dulbecco’s phosphate-buffered saline (DPBS; Mediatech Inc., Herndon, VA). MDA-MB-231 cells were maintained in growth medium (GM): minimum essential media (MEM) supplemented with L-glutamine (2 mM), nonessential amino acids (0.1 mM), HEPES buffer (10 mM), […] insulin, and 5% vol/vol BGS]. BG1Luc4E2 cells were maintained in BG1-GM: alpha-MEM supplemented with HEPES buffer (10 mM), geneticin (0.4 g/L) and 10% vol/vol BGS. Basal medium (BM) for MDA-MB-231 cells consisted of a formulation similar to GM, except that phenol red–free MEM and 3% charcoal-stripped BGS were used. BM for BG1Luc4E2 cells (BG1-BM) consisted of phenol red–free Dulbecco’s modified Eagle media: Nutrient Mixture F12 (DMEM:F12; Gibco/Invitrogen) supplemented with HEPES buffer (10 mM) and 10% vol/vol charcoal-stripped BGS. BGS was stripped of estrogenic activity by methods described previously ([Biswas and Vonderhaar 1987]; [Lippman et al. 1976]).
(§1) We used two ERE-luciferase reporter gene systems: one transiently transfected and the other an established stably transfected cell line. For the transient system, ER-negative MDA-MB-231 breast cancer cells were plated in BM. Two days later cells were transfected using Tfx-20 (Promega, Madison, WI) with expression vectors for ER-α(HEG0; from P. Chambon, Université Louis Pasteur, Illkrich, France), the estrogen-responsive firefly luciferase reporter construct ERE2-pS2-luc ([Long et al. 2001]), and the control Renilla luciferase reporter construct pRL-TK (Promega). Cells were treated with test chemicals 1 hr after transfection, and assayed for luciferase activity after 18 hr. Results are expressed as the ratio of firefly luciferase to Renilla luciferase. For the stable reporter system, ER-positive BG1Luc4E2 ovarian cancer cells ([Rogers and Denison 2000]) were incubated in BG1-BM for 5 days before treatment; cells were then assayed for luciferase activity 18 hr after addition of the test compound.
All statistics were performed using GraphPad Prism, version 3.0a, for Macintosh (GraphPad Software, San Diego CA). For each analysis, we determined whether groups had unequal variances by Bartlett’s test. Group averages with equal variances were compared to each other either by one-way analysis of variance (ANOVA) with Tukey post-test or by unpaired t-test as appropriate. Group averages with unequal variances were compared to each other by t-test with Welch’s correction. […] All values are expressed as mean ± SD or SE as indicated. We considered groups statistically different if p < 0.05 by ANOVA with Tukey posttest or t-test (two-tailed). Dose–response studies were also subjected to regression analysis using a sigmoidal curve fitting model: […]

[3] = system: ERE-luciferase (BG1Luc4E2 cells); assay: ERE-luciferase induction in BG1Luc4E2 cells after cotreatment with 10^−11 M E2; format: cell-based, human; conditions: for Effect on E2-induced ERE-luciferase activity (cotreatment): compared with the maximal effect of E2 alone
Experimental: as §1
See “Material and Methods” for details. […] Error bars indicate SE.

[4] = system: BG1Luc4E2 cells; conditions: 5–50 μM, alone or in combination with E2
[5] = system: ERE-luciferase (MDA-MB-231 cells transfected with ER-α or BG1Luc4E2 cells); assay: ERE-luciferase induction by microsomal metabolites (rat liver microsome incubation products); conditions: female rat liver microsomes, complete NADPH generating system
Experimental: as §1

[6] = 1 nM 3H-E2, 0.6 nM recombinant ER-α, 4°C overnight

Compound: Oc1cc(Br)c(Br)cc1Br [2,4,5-TBP, 2,4,5-tribromophenol]
IC50 (concentration yielding 50% displacement of 3H-E2 from receptor) [1, 6]: No effect | EC50 [2]: No effect

Compound: Oc1ccc(Br)cc1Br [2,4-DBP, 2,4-dibromophenol]
IC50 (concentration yielding 50% displacement of 3H-E2 from receptor) [1, 6]: No effect | EC50 [2]: No effect

Compound: Oc1cc(Br)ccc1Oc1ccc(Br)cc1Br [2′-OH-BDE-28, 2′-OH - 2,4, 4′ - tribromodiphenyl]
Concentration at which antagonism of E2 was observed [3]: 50 µM | Effect on E2-induced ERE-luciferase activity (cotreatment) [3]: able to antagonize the effect of E2 | pIC50 [1]: 4.22 | Relative affinity (E2 IC50 ÷ test chemical IC50 × 100) [1]: 0.001% | Toxicity (protein content of culture wells at harvest) [4]: no toxicity

Compound: Oc1c(Br)ccc(Oc2ccc(Br)cc2Br)c1Br [3-OH-BDE-47, 3-OH-2, 2′, 4, 4′-tetrabromodiphenyl]
Effect on E2-induced ERE-luciferase activity (cotreatment) [3]: able to potentiate the ERE-luciferase induction of E2 | Relative affinity (E2 IC50 ÷ test chemical IC50 × 100) [1]: 0.001% | pIC50 [1, 6]: 4.28

Compound: Oc1ccc(Oc2ccc(Br)cc2Br)c(Br)c1Br [4-OH-BDE-42, 4-HO-2, 2′,3, 4′-tetra-bromodiphenyl]
Effect on E2-induced ERE-luciferase activity (cotreatment) [3]: appeared to induce ERE-luciferase above the E2 maximum, but the effect was not statistically significant | pIC50 [1]: 4.85 | Relative affinity (E2 IC50 ÷ test chemical IC50 × 100) [1]: 0.005%

Compound: Oc1ccc(Oc2ccc(Br)cc2Br)c(Br)c1 [4′-OH-BDE-17, 4-OH-2, 2′, 4-tribromodiphenyl]
Effect on E2-induced ERE-luciferase activity (cotreatment) [3]: beyond the maximal effect of E2 alone | pIC50 [1]: 5.68 | Relative affinity (E2 IC50 ÷ test chemical IC50 × 100) [1]: 0.03% | Relative effect (test chemical-to-E2 ratio of luciferase induction at EC50) [2]: 1.30 ratio | Relative estrogen potency (ratio of the E2 EC50 to EEP) [2]: 3.4 × 10^−7 ratio | Relative estrogenic potency compared with DE-71 [2]: approximately 10 fold | Emax ([2]; Homo sapiens, read-out: Estimated maximal effect higher than E2): 30% | pEC50 ([2]; Homo sapiens): 5.33 | Fold-induction at EC50 [2]: 4.3

Compound: Oc1cc(Br)c(Oc2ccc(Br)cc2Br)cc1Br [4′-OH-BDE-49, 4′-OH-2, 2′,4, 5′-tetrabromodiphenyl]
Effect on E2-induced ERE-luciferase activity (cotreatment) [3]: beyond the maximal effect of E2 alone | pIC50 [1]: 5.64 | Relative affinity (E2 IC50 ÷ test chemical IC50 × 100) [1]: 0.03% | Relative effect (test chemical-to-E2 ratio of luciferase induction at EC50) [2]: 0.36 ratio | pEC50 ([2]; Homo sapiens): 4.89 | Fold-induction at EC50 [2]: 1.2

Compound: Oc1cc(Br)cc(Br)c1Oc1ccc(Br)cc1Br [6-OH-BDE-47, 6-OH-2, 2′,4, 4′-tetra-bromodiphenyl]
Concentration at which antagonism of E2 was observed [3]: 5 µM | Effect on E2-induced ERE-luciferase activity (cotreatment) [3]: able to antagonize the effect of E2 | pIC50 [1]: 4.96 | Relative affinity (E2 IC50 ÷ test chemical IC50 × 100) [1]: 0.001% | Toxicity (protein content of culture wells at harvest) [4]: no toxicity | EC50 [2]: No effect

Decrease of activity by microsomal incubation [5]: 78% | pEC50 ([2]; Homo sapiens): 11.92
Compound: C[C@]12CC[C@@H]3c4ccc(O)cc4CC[C@H]3[C@@H]1CC[C@@H]2O [E2, 1, 3, 5(10)-estra-triene-3, 17β-diol, reference compound]
Test concentrations inducing ERE-luciferase [2]: above 10^−13 M
